This passage reports IC50 results from patent US10517870B2, “Aryl substituted bicycle heteroaryl compounds” (Bristol-Myers Squibb Company, priority 2015, dated 2019).

One experiment has as its target T1, PAR4 (Homo sapiens, UniProt Q96RI0).
T1 construct: expressed in transfected cells; host or cells: HEK293 PAR4 Clone 1.2A
T1 sequence (Q96RI0 18-385): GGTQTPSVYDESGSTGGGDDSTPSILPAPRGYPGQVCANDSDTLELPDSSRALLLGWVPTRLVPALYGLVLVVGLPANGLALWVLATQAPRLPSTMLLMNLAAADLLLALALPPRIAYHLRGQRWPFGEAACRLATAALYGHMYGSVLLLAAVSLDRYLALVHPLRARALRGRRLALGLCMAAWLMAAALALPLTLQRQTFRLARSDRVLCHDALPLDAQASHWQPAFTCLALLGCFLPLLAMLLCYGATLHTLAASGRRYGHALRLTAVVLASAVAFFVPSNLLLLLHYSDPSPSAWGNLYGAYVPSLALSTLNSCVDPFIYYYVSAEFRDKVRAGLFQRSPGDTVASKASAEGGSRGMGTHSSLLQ
Kind of experiment: PAR4 FLIPR assay (calcium mobilization, antagonist activity) in PAR4-expressing HEK293 cells. The experiment is classed as cell-based. The source says: The FLIPR assay is an exemplary in vitro assay for measuring the activity of the PAR4 antagonists of the present invention. In this assay, intracellular calcium mobilization is induced in PAR4 expressing cells by a PAR4 agonist and calcium mobilization is monitored.
HEK293 cells stably expressing PAR4 were generated by a standard method of transfection of human PAR4 (F2R23) cDNA expression vector and selected based on PAR4 protein expression or mRNA expression. […] These cells also express endogenous PAR1 and can elicit calcium signal upon stimulation with PAR1 agonist peptide. Therefore, the same cells were also used to determine selectivity against PAR1 and agonist activity for both receptors. Cells from HEK293 PAR4 Clone 1.2A (BMS Arctic ID 383940) were propagated and used for calcium mobilization studies.
FLIPR-based calcium mobilization assay in HEK293 cells was used to measure PAR4 antagonism, agonism, and selectivity against PAR1. The activity of the PAR4 antagonists of the present invention were tested in PAR4 expressing cells by monitoring H-Ala-Phe(4-F)-[…]NH2-induced intracellular calcium mobilization. Counter screens for agonist activity and PAR1 antagonist activity were also performed. Briefly, PAR1/PAR4-expressing HEK293 cells were grown in DMEM (Life Technology, Grand Island, N.Y.) containing 10% heat-inactivated FBS, 1% Penicillin-Streptomycin, 10 μg/mL blasticidin, and 100 μg/mL Zeocin at 37° C. with 5% CO2. Cells were plated overnight prior to the experiment in a black 384-well Purecoat Amine clear bottom plate (Becton Dickinson Biosciences, San Jose, Calif.) at 10,000 cells/well in 30 μL growth medium and incubated in a humidified chamber at 37° C. with 5% CO2 overnight. Prior to compound addition, the cell medium was replaced with 40 μL of IX calcium and magnesium-containing Hank's Balanced Saline Solution (HBSS) (with 20 mM HEPES) and 1:1000 diluted fluorescent calcium indicator (Codex Biosolutions, Gaithersburg, Md.). After a 30 minute incubation period at 37° C., and a further 30 minute incubation and equilibration period at room temperature, 20 μL test compound (diluted in 1×HBSS buffer) was added at various concentrations at 0.17% dimethyl sulfoxide (DMSO) final concentration. Changes in fluorescence intensity were measured using a Functional Drug Screening System (FDSS, Hamamatsu, Japan) to determine agonist activities. The cells were then incubated for 30 minutes at room temperature followed by addition of 20 μL of agonist peptide for antagonist activity measurement. […] Compound potency was derived from 11-point concentration-response curves.
For orientation: A change in cytosolic calcium serves as a functional read-out for many receptors and channels.

The next experiment concerns SiHa (HPV16+) cells. Kind of experiment: Cell proliferation/viability assay, SiHa cells. The experiment is classed as cell-based. To be noted: Homo sapiens, 96 h, 4 days. An outline of the steps: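 Cells plated in antibiotic-free growth medium, compound added 2 h later (0.5% DMSO final) and incubated 4 days at 37 °C. Viability by CellTiter Blue (ex 530/em 590 nm) or CellTiter Glo luminescence; IC50 from four-parameter logistic fit of % inhibition.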

As for `COc1ccc(-c2cc(C)cc3nc(OC(F)F)cnc23)cc1` [Example 6, 2-(difluoromethoxy)-5-(4-methoxyphenyl)-7-methylquinoxaline], the half-maximal inhibitory concentration (IC50) stood at 2.4 µM on PAR4 and 10.1 µM in the experiment with SiHa (HPV16+) cells.

One may read the IC50 as the concentration at which inhibition is half-maximal.
